Measured values taken from patent US20250059174A1, “Pharmaceutical Compounds and Compositions as C-Kit Kinase Inhibitors” (Enanta Pharmaceuticals, Inc., priority 2023, published 2025).

Tests used:
[1] = biological target: Recombinant human c-KIT kinase (Homo sapiens (Human), UniProt P10721); assay: c-KIT kinase chemiluminescence assay (ADP-Glo); format: biochemical; conditions: ATP 50 μM
Summary of the method: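 ADP formed by c-KIT on polyEY over 2 h at RT (after 30 min enzyme preincubation; Tris pH 7.5, MgCl2, BSA, DTT buffer) was detected by ADP-Glo luminescence. IC50 and Hill slope were fitted to control-normalized activity across compound concentrations.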

M-07e cells = assay: M-07e cellular assay (SCF-mediated cell proliferation); format: cell-based; conditions: Homo sapiens, 72 hours, CellTiter Glo
Summary of the method: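 EC50 values reflect inhibition of SCF-driven proliferation, with SCF at EC90 and a 72 h compound exposure, measured as CellTiter Glo luminescence. Growth is scaled between no-SCF (0%) and untreated (100%) wells.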

Chain of Recombinant human c-KIT kinase (P10721 26-976): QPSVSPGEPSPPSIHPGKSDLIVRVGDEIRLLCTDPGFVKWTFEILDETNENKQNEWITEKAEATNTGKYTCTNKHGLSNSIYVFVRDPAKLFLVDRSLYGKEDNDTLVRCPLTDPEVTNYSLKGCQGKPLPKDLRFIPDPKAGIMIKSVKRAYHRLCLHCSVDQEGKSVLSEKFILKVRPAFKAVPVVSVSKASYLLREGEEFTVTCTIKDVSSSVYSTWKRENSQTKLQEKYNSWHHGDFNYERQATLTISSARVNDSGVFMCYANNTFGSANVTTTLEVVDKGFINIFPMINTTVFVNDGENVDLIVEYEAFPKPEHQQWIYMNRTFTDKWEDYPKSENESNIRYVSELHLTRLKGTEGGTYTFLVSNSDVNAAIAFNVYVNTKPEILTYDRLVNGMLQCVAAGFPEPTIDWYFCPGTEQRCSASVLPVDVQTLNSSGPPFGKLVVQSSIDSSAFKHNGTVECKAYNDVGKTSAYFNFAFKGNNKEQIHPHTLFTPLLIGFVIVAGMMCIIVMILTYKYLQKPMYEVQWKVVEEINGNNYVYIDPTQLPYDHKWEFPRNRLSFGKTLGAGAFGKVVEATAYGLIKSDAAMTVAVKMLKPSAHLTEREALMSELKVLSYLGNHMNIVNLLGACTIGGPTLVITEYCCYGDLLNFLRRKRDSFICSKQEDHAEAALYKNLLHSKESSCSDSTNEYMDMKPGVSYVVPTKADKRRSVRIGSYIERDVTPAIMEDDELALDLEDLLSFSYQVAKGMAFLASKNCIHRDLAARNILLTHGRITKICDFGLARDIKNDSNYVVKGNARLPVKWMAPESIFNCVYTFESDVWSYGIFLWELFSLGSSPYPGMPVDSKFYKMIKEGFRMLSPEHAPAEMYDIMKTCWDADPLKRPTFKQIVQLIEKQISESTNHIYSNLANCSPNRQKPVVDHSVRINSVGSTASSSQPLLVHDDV

Row | Structure (SMILES) | IC50 [1] [nM] | EC50 (M-07e cells) [nM]
1 | Cc1ccc(-c2ccc(C3CC3)cn2)cc1NC(=O)c1cnn2ccc(N3CC4(COC4)C3)cc12 [Example 336] | < 100 | < 100
2 | Cc1ccc(-c2ncc(C(F)(F)F)cn2)cc1NC(=O)c1cnn2ccc(N3CC4(COC4)C3)cc12 [Example 337] | 100 to 1000 | < 100
3 | Cc1ccc(-c2ncc(OC(F)F)cn2)cc1NC(=O)c1cnn2ccc(N3CC4(COC4)C3)cc12 [Example 338] | 100 to 1000 | < 100
4 | Cc1ccc(-c2ncc(C3CC3)cn2)cc1NC(=O)c1cnn2ccc(N3CC4(C3)CC(O)(C(F)F)C4)cc12 [Example 339] | < 100 | < 100
5 | Cc1ccc(-c2cnc(C3CC3)nc2)cc1NC(=O)c1cnn2ccc(N3CC4(COC4)C3)cc12 [Example 340] | < 100 | < 100
6 | Cc1ccc(-c2cnc(C3CC3)cn2)cc1NC(=O)c1cnn2ccc(N3CC4(COC4)C3)cc12 [Example 341] | < 100 | < 100
7 | Cc1ccc(-c2ccc(C3CC3)nc2)cc1NC(=O)c1cnn2ccc(N3CC4(COC4)C3)cc12 [Example 342] | < 100 | < 100
8 | Cc1ccc(-c2ccc(C3CC3)nn2)cc1NC(=O)c1cnn2ccc(N3CC4(COC4)C3)cc12 [Example 343] | < 100 | < 100
9 | Cc1ccc(-c2ncc(C(F)F)cn2)cc1NC(=O)c1cnn2ccc(N3CC4(COC4)C3)cc12 [Example 344] | 100 to 1000 | < 100
10 | Cc1ccc(-c2ncc(C(C)C)cn2)cc1NC(=O)c1cnn2ccc(N3CC4(COC4)C3)cc12 [Example 345] | < 100 | < 100
11 | Cc1sc(-c2ncc(C3CC3)cn2)cc1NC(=O)c1cnn2ccc(N3CC4(C3)CC(O)(C(F)F)C4)cc12 [Example 346] | < 100 | < 100
12 | Cc1sc(-c2nccc(C3CC3)n2)cc1NC(=O)c1cnn2ccc(N3CC4(C3)CC(O)(C(F)F)C4)cc12 [Example 347] | 100 to 1000 | 100 to 1000
13 | Cc1ccc(-c2ncc(OC(F)(F)F)cn2)cc1NC(=O)c1cnn2ccc(N3CC4(COC4)C3)cc12 [Example 348] | < 100 | < 100
14 | Cc1ccc(-c2ccc(C(C)C)cn2)cc1NC(=O)c1cnn2ccc(N3CC4(COC4)C3)cc12 [Example 349] | < 100 | < 100
15 | O=C(Nc1cc(-c2ccc(C3CC3)cn2)ccc1Cl)c1cnn2ccc(N3CC4(COC4)C3)cc12 [Example 350] | > 1000 | > 1000
16 | Cc1ccc(-c2ccc(C3CC3)cn2)cc1NC(=O)c1cnn2ccc(N3CC4(C3)CC(O)(C(F)F)C4)cc12 [Example 351] | < 100 | < 100
17 | O=C(Nc1cc(-c2ccc(C3CC3)cn2)ccc1Cl)c1cnn2ccc(N3CC4(C3)CC(O)(C(F)F)C4)cc12 [Example 352] | > 1000 | > 1000

Row | Structure (SMILES) | IC50 [1] [nM] | EC50 (M-07e cells) [nM]
18 | Cc1ccc(-c2cnc(C3CC3)nc2)cc1NC(=O)c1cnn2ccc(N3CC4(C3)CC(O)(C(F)F)C4)cc12 [Example 353] | < 100 | < 100
19 | Cc1ccc(-c2cnc(N3CC(O)(C(F)(F)F)C3)nc2)cc1NC(=O)c1cnn2ccc(N3CC4(COC4)C3)cc12 [Example 354] | < 100 | < 100
20 | Cc1sc(-c2cnc(C3CC3)nc2)cc1NC(=O)c1cnn2ccc(N3CC4(C3)CC(O)(C(F)F)C4)cc12 [Example 355] | 100 to 1000 | < 100
21 | Cc1ncc(-c2ccc(C3CC3)cn2)cc1NC(=O)c1cnn2ccc(N3CC4(C3)CC(O)(C(F)F)C4)cc12 [Example 356] | < 100 | < 100
22 | Cc1ncc(-c2ccc(C3CC3)cn2)cc1NC(=O)c1cnn2ccc(N3CC4(COC4)C3)cc12 [Example 357] | 100 to 1000 | < 100
23 | Cc1ncc(-c2ncc(OC(F)(F)F)cn2)cc1NC(=O)c1cnc(-c2ccc3c(c2)CC(=O)N3)o1 [Example 358, N-(2-methyl-5-(5-(trifluoromethoxy)pyrimidin-2-yl)pyridin-3-yl)-2-(2-oxoindolin-5-yl)oxazole-5-carboxamide] | > 1000 | 100 to 1000
24 | Cc1ccc(-c2ncc(OC(F)F)cn2)cc1NC(=O)c1cnc(-c2ccc3c(c2)CC(=O)N3)o1 [Example 359] | 100 to 1000 | 100 to 1000
25 | Cc1ccc(-c2ncc(OC(F)(F)F)cn2)cc1NC(=O)c1cnc(-c2ccc3c(c2)CC(=O)N3)o1 [Example 360] | 100 to 1000 | 100 to 1000
26 | Cc1ncc(-c2ncc(C3CC3)cn2)cc1NC(=O)c1cnc(-c2ccc3c(c2)CC(=O)N3)o1 [Example 361] | 100 to 1000 | 100 to 1000
27 | Cc1ncc(-c2ncc(OC(F)F)cn2)cc1NC(=O)c1cnc(-c2ccc3c(c2)CC(=O)N3)o1 [Example 362] | 100 to 1000 | 100 to 1000
28 | Cc1ccc(-c2ncc(C3CC3)cn2)cc1NC(=O)c1cnc(-c2ccc3c(c2)CC(=O)N3)o1 [Example 363] | < 100 | < 100
29 | Cc1ccc(-c2ncc(C3CC3)cn2)cc1NC(=O)c1cnn2ccc(-c3c(C)nc(N)nc3C)cc12 [Example 365] | 100 to 1000 | < 100
30 | Cc1ccc(-c2ncc(OC(F)F)cn2)cc1NC(=O)c1cnn2ccc(-c3c(C)nc(N)nc3C)cc12 [Example 366] | > 1000 | 100 to 1000
31 | Cc1ccc(-c2ncc(OC(F)(F)F)cn2)cc1NC(=O)c1cnn2ccc(-c3c(C)nc(N)nc3C)cc12 [Example 367] | 100 to 1000 | 100 to 1000
32 | Cc1ncc(-c2ncc(C3CC3)cn2)cc1NC(=O)c1cnn2ccc(-c3c(C)nc(N)nc3C)cc12 [Example 371-1] | > 1000 | 100 to 1000
33 | Cc1ccc(-c2nnc([C@H]3C[C@@H]3F)o2)cc1NC(=O)c1cnc(-c2ccc3c(c2)CC(=O)N3)o1 [Example 374] | 100 to 1000 | 100 to 1000
34 | Cc1ncc(-c2cn(C3CC3)nn2)cc1NC(=O)c1cnn2ccc(N3CC4(C3)CC(O)(C(F)F)C4)cc12 [Example 377] | 100 to 1000 | < 100
